Results as given in ChEMBL document CHEMBL1201862, “PubChem BioAssay data set” (2004).
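Compound exposure: 48 hours, 5 concentrations, 96-well plates. GI50 is the concentration that inhibits growth by half.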 Active and inactive are the calls of the source. Cut-off read from the data, not from the text of the source: active = GI50 up to about 1.1 µM and inactive = higher.

Assays:
Test in all cases: growth of human tumour cells (NCI), 48 h
HCC 2998 = system: HCC 2998
ACHN = system: ACHN
MOLT-4 = system: MOLT-4
HT-29 = system: HT-29
HOP-62 = system: HOP-62
OVCAR-5 = system: OVCAR-5
NCI-H522 = system: NCI-H522
SNB-19 = system: SNB-19
SR = system: SR
RPMI-8226 = system: RPMI-8226
SK-MEL-2 = system: SK-MEL-2
NCI-H460 = system: NCI-H460
NCI-H23 = system: NCI-H23
UO-31 = system: UO-31
HOP-92 = system: HOP-92
M14 = system: M14
CAKI-1 = system: CAKI-1
MCF7 = system: MCF7
T47D = system: T47D
KM12 = system: KM12
EKVX = system: EKVX
UACC-62 = system: UACC-62
RXF 393 = system: RXF 393
IGROV-1 = system: IGROV-1
SK-MEL-5 = system: SK-MEL-5
A549 = system: A549
MDA-N = system: MDA-N
Hs-578T = system: Hs-578T
A498 = system: A498
SK-OV-3 = system: SK-OV-3
K562 = system: K562
HCT-116 = system: HCT-116
Malme-3M = system: Malme-3M
OVCAR-4 = system: OVCAR-4
SF-539 = system: SF-539
786-0 = system: 786-0
UACC-257 = system: UACC-257
TK-10 = system: TK-10
SF-295 = system: SF-295
HL-60 = system: HL-60
SK-MEL-28 = system: SK-MEL-28
DU-145 = system: DU-145
SN12C = system: SN12C
MDA-MB-231 = system: MDA-MB-231
CCRF-CEM = system: CCRF-CEM
U-251 = system: U-251
SW-620 = system: SW-620
MDA-MB-435 = system: MDA-MB-435
NCI-H226 = system: NCI-H226
NCI/ADR-RES = system: NCI/ADR-RES
COLO 205 = system: COLO 205
OVCAR-8 = system: OVCAR-8
SNB-75 = system: SNB-75
HCT-15 = system: HCT-15
OVCAR-3 = system: OVCAR-3
SF-268 = system: SF-268
LOX IMVI = system: LOX IMVI
PC-3 = system: PC-3

Measured: GI50

CCN(CC)C(=S)SS(=O)(=O)c1ccc(N)cc1
inactive: HCC 2998 > 29.1 µM | ACHN > 78.3 µM | MOLT-4 2.3 µM | HT-29 > 100 µM | HOP-62 > 58.2 µM | OVCAR-5 > 100 µM | NCI-H522 3.68 µM | SNB-19 > 100 µM | SR 3.41 µM | RPMI-8226 22.8 µM | SK-MEL-2 > 100 µM | NCI-H460 87.1 µM | NCI-H23 > 100 µM | UO-31 > 89.5 µM | HOP-92 > 23.1 µM | M14 70 µM | CAKI-1 > 46.9 µM | MCF7 7.29 µM | T47D 76.7 µM | KM12 29.6 µM | EKVX > 100 µM | UACC-62 39.4 µM | RXF 393 31.8 µM | IGROV-1 4.91 µM | SK-MEL-5 15.2 µM | A549 14.5 µM | MDA-N 70.5 µM | Hs-578T > 91 µM | A498 > 40.2 µM | SK-OV-3 > 100 µM | K562 39.5 µM

CC[C@H](C)C1=C(OC(C)=O)[N@+]2([O-])Oc3ccc(-c4c(OC(C)=O)c(OC(C)=O)c(-c5ccc(OC(C)=O)cc5)c(OC(C)=O)c4OC(C)=O)cc3O[C@]2([C@@H](C)CC)C(=O)N1OC(C)=O
active: HCC 2998 0.00766 µM | CCRF-CEM 0.294 µM
inactive: HCT-116 15.2 µM | Malme-3M 15.2 µM | ACHN 15.5 µM | OVCAR-4 12.2 µM | MOLT-4 11.6 µM | SF-539 11.2 µM | HT-29 15.6 µM | 786-0 13.6 µM | UACC-257 13.7 µM | OVCAR-5 29.2 µM | NCI-H522 8.05 µM | TK-10 15.6 µM | SF-295 9.25 µM | HL-60 10.5 µM | SNB-19 13.7 µM | SK-MEL-28 12.2 µM | SR 12.6 µM | DU-145 16.6 µM | RPMI-8226 9.2 µM | SK-MEL-2 9.64 µM | SN12C 17.9 µM | MDA-MB-231 23.9 µM | NCI-H460 20 µM | NCI-H23 15.7 µM | UO-31 21.4 µM | U-251 16 µM | M14 16.9 µM | CAKI-1 20 µM | MCF7 17.5 µM | T47D 10.5 µM | KM12 14.4 µM | SW-620 13 µM | EKVX 5.45 µM | MDA-MB-435 16 µM | NCI-H226 17.6 µM | NCI/ADR-RES 17.9 µM | COLO 205 8.15 µM | UACC-62 9.46 µM | OVCAR-8 11.5 µM | RXF 393 38.3 µM | IGROV-1 9.29 µM | SK-MEL-5 10.2 µM | SNB-75 12 µM | A549 12.7 µM | OVCAR-3 9.29 µM | MDA-N 9.79 µM | SF-268 14.7 µM | LOX IMVI 10.2 µM | PC-3 8.59 µM | A498 14.1 µM | SK-OV-3 12.7 µM | K562 14.5 µM
15.5 µM: HCT-15

Cn1c(=O)ccc2c(=O)c3ccccc3oc21
active: SNB-75 0.029 µM
inactive: HCC 2998 > 100 µM | HCT-116 > 100 µM | Malme-3M > 100 µM | ACHN > 100 µM | OVCAR-4 > 100 µM | SF-539 > 100 µM | HT-29 > 100 µM | HOP-62 > 100 µM | OVCAR-5 > 100 µM | NCI-H522 > 100 µM | TK-10 > 100 µM | SF-295 > 100 µM | HL-60 > 100 µM | SNB-19 > 100 µM | SK-MEL-28 > 100 µM | SR > 100 µM | DU-145 > 100 µM | SK-MEL-2 > 100 µM | SN12C > 100 µM | MDA-MB-231 > 100 µM | CCRF-CEM > 100 µM | NCI-H460 > 100 µM | NCI-H23 > 100 µM | UO-31 4.68 µM | HOP-92 67.6 µM | U-251 > 100 µM | M14 > 100 µM | CAKI-1 > 100 µM | T47D > 100 µM | KM12 > 100 µM | SW-620 > 100 µM | EKVX > 100 µM | MDA-MB-435 > 100 µM | NCI-H226 > 100 µM | NCI/ADR-RES > 100 µM | COLO 205 > 100 µM | UACC-62 > 100 µM | OVCAR-8 > 100 µM | RXF 393 64.9 µM | IGROV-1 > 100 µM | SK-MEL-5 > 100 µM | A549 > 100 µM | OVCAR-3 > 100 µM | MDA-N > 100 µM | SF-268 > 100 µM | LOX IMVI > 100 µM | Hs-578T > 100 µM | PC-3 > 100 µM | A498 > 100 µM | SK-OV-3 > 100 µM | K562 > 100 µM
> 100 µM: HCT-15

O=C1C2CCCC2N1Cc1ccccc1 (centres undefined)
> 100 µM: HCT-15
inactive: HCC 2998 > 100 µM | HCT-116 > 100 µM | ACHN > 100 µM | OVCAR-4 23.3 µM | MOLT-4 > 100 µM | SF-539 > 100 µM | HT-29 > 100 µM | HOP-62 > 100 µM | 786-0 > 100 µM | UACC-257 > 100 µM | OVCAR-5 > 100 µM | NCI-H522 > 100 µM | TK-10 > 100 µM | SF-295 > 100 µM | HL-60 > 100 µM | DU-145 > 100 µM | RPMI-8226 > 100 µM | SN12C > 100 µM | CCRF-CEM > 100 µM | NCI-H460 > 100 µM | NCI-H23 > 100 µM | UO-31 15.1 µM | HOP-92 > 100 µM | M14 13.6 µM | CAKI-1 > 100 µM | MCF7 > 100 µM | T47D > 100 µM | KM12 > 100 µM | SW-620 > 100 µM | EKVX > 100 µM | MDA-MB-435 > 100 µM | NCI-H226 > 100 µM | NCI/ADR-RES > 100 µM | COLO 205 > 100 µM | UACC-62 > 100 µM | OVCAR-8 > 100 µM | RXF 393 > 100 µM | IGROV-1 > 100 µM | SK-MEL-5 > 100 µM | SNB-75 49.5 µM | OVCAR-3 > 100 µM | MDA-N > 100 µM | SF-268 > 100 µM | LOX IMVI > 100 µM | Hs-578T > 100 µM | A498 > 100 µM | SK-OV-3 > 100 µM | K562 > 100 µM

CC1SCc2nc3ccccc3n21 (centres undefined)
active: SNB-75 0.284 µM
inactive: HCC 2998 > 100 µM | HCT-116 > 100 µM | Malme-3M > 100 µM | ACHN > 100 µM | OVCAR-4 > 100 µM | MOLT-4 > 100 µM | SF-539 > 100 µM | HT-29 > 100 µM | HOP-62 > 100 µM | 786-0 > 100 µM | UACC-257 > 100 µM | OVCAR-5 > 100 µM | NCI-H522 > 100 µM | TK-10 > 100 µM | SF-295 > 100 µM | HL-60 > 100 µM | SNB-19 > 100 µM | SK-MEL-28 > 100 µM | DU-145 > 100 µM | RPMI-8226 > 100 µM | SK-MEL-2 > 100 µM | SN12C > 100 µM | MDA-MB-231 > 100 µM | CCRF-CEM > 100 µM | NCI-H460 > 100 µM | NCI-H23 > 100 µM | UO-31 > 100 µM | HOP-92 > 100 µM | U-251 > 100 µM | M14 > 100 µM | CAKI-1 > 100 µM | MCF7 > 100 µM | T47D > 100 µM | KM12 > 100 µM | EKVX > 100 µM | MDA-MB-435 > 100 µM | NCI-H226 3.58 µM | NCI/ADR-RES > 100 µM | COLO 205 > 100 µM | UACC-62 > 100 µM | OVCAR-8 > 100 µM | RXF 393 > 100 µM | IGROV-1 > 100 µM | SK-MEL-5 > 100 µM | A549 > 100 µM | OVCAR-3 > 100 µM | MDA-N > 100 µM | SF-268 > 100 µM | LOX IMVI > 100 µM | Hs-578T > 100 µM | PC-3 > 100 µM | A498 > 100 µM | SK-OV-3 > 100 µM | K562 > 100 µM
> 100 µM: HCT-15
